{"source": "ChEMBL document CHEMBL5532701", "about": "(RSC Med Chem, 2024)", "key": {"[1]": {"test_system": "Haemophilus influenzae", "test": "Antibacterial activity against Haemophilus influenzae ATCC 43095 assessed as reduction in bacterial growth incubated for 20 hrs", "format": "functional"}, "[2]": {"target": "T1, 1-deoxy-D-xylulose-5-phosphate synthase (Haemophilus influenzae (strain 86-028NP), UniProt Q4QKG6)", "T1 sequence (Q4QKG6 whole entry)": "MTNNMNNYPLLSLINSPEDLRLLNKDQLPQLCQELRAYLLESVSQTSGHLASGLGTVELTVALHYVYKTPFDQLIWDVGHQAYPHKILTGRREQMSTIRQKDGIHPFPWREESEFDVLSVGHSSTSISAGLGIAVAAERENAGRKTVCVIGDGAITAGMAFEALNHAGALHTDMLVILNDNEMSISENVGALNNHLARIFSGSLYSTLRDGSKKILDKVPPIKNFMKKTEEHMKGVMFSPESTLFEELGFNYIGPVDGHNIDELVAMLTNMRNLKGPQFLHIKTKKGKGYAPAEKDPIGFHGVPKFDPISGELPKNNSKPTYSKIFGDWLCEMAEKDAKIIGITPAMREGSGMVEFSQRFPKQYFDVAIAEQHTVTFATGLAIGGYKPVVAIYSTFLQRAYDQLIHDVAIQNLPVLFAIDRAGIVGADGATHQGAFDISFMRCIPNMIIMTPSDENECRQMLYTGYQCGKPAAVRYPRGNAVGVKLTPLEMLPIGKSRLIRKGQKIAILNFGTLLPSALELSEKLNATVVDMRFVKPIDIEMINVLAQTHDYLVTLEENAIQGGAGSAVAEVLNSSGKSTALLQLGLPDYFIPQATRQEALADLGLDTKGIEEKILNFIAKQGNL", "test": "Inhibition of Haemophilus influenzae recombinant DXPS"}, "[3]": {"test": "Inhibition of N-terminal his-tagged Chlamydomonas DXPS"}, "[4]": {"test_system": "Escherichia coli", "test": "Antibacterial activity against Escherichia coli W3110 assessed as reduction in bacterial growth incubated for 20 hrs", "format": "functional"}, "[5]": {"test_system": "HFF", "test": "Cytotoxicity against human HFF cells assessed as inhibition of cell proliferation upto 1000 uM incubated for 96 hrs by SYBR-safe assay", "format": "toxicity, cell-based"}, "[6]": {"test": "Permeability of the compound assessed as absorbed fraction incubated for 10 hrs by PAMPA assay", "format": "ADME"}}, "data": [{"smiles": "CC(C)(C(=O)O)C(=O)N(O)Cc1ccccc1Cl", "values": [{"measurement": "MIC", "setting": "[1]", "value": 117, "unit": "µM"}]}, {"smiles": "CC1(C)C(=O)ON(Cc2ccccc2Cl)C1=O", "note": "[KETOCLOMAZONE]", "values": [{"measurement": "MIC", "setting": "[1]", "value": 31, "unit": "µM"}, {"measurement": "IC50", "setting": "[2]", "value": 28, "unit": "µM"}, {"measurement": "IC50", "setting": "[3]", "value": 100, "unit": "µM"}, {"measurement": "MIC", "setting": "[4]", "value": 3100, "unit": "µM"}, {"measurement": "Activity", "setting": "[5]", "value": "Non-Toxic"}, {"measurement": "permeability", "setting": "[6]", "value": 47, "unit": "%"}]}]}
